Experimental data published in DBAASP.
Converted amounts (≈) assume the structure as drawn. Values belong to the compound of their own block, whether it stands above or below them.

What was measured:
Test in all cases: ≥ marks a high value that may be exact or a test limit, other limits are often not marked, values filed in µg/mL are converted to µM
Escherichia coli = system: Escherichia coli
Bacillus subtilis = system: Bacillus subtilis
Streptococcus pyogenes = system: Streptococcus pyogenes
Salmonella typhimurium = system: Salmonella typhimurium
Pseudomonas aeruginosa = system: Pseudomonas aeruginosa
Proteus vulgaris = system: Proteus vulgaris
[1] = system: Staphylococcus epidermidis
[2] = system: Staphylococcus aureus ATCC 6538
[3] = system: Micrococcus luteus ATCC 4698
[4] = system: Escherichia coli DH5alpha
[5] = system: Staphylococcus epidermidis ATCC 12228
[6] = system: Listeria monocytogenes BCRC 14845
[7] = system: Staphylococcus aureus BCRC 10780
[8] = system: Streptococcus equinus BCRC 14729
[9] = system: Staphylococcus aureus BCRC 10781
Streptococcus iniae = system: Streptococcus iniae
[10] = system: Vibrio alginolyticus BCRC 12829
[11] = system: Escherichia coli BCRC 10675
[12] = system: Vibrio anguillarum serotype O1
[13] = system: Klebsiella oxytoca BCRC 13985
Vibrio harveyi = system: Vibrio harveyi
[14] = system: Enterobacter cloacae BCRC 10401
[15] = system: Pseudomonas aeruginosa BCRC 10944
[16] = system: Yersinia enterocolitica BCRC 13999
Lactococcus garvieae = system: Lactococcus garvieae
[17] = system: Klebsiella aerogenes BCRC 10370
Vibrio parahaemolyticus = system: Vibrio parahaemolyticus
Vibrio alginolyticus = system: Vibrio alginolyticus
[18] = system: Vibrio parahaemolyticus BCRC 10806
[19] = system: Staphylococcus xylosus BCRC 12930
[20] = system: Staphylococcus aureus CCARM 3543
[21] = system: Pseudomonas aeruginosa CCARM 2095
[22] = system: Staphylococcus aureus KCTC 1621
[23] = system: Staphylococcus epidermidis KCTC 1917
[24] = system: Escherichia coli KCTC 1682
[25] = system: Salmonella typhimurium KCTC 1926
[26] = system: Pseudomonas aeruginosa CCARM 2109
[27] = system: Pseudomonas aeruginosa KCTC 1637
[28] = system: Bacillus subtilis KCTC 3068
[29] = system: Staphylococcus aureus CCARM 3001
[30] = system: Candida albicans ATCC 64550

Structure (SMILES): CC(C)C[C@H](NC(=O)[C@H](CC(C)C)NC(=O)[C@H](CCCCN)NC(=O)[C@H](CO)NC(=O)[C@H](CC(C)C)NC(=O)[C@@H](NC(=O)[C@H](CCCCN)NC(=O)[C@H](Cc1ccccc1)NC(=O)[C@H](CC(C)C)NC(=O)[C@@H](NC(=O)CNC(=O)[C@H](CC(C)C)NC(=O)[C@@H](N)Cc1ccccc1)C(C)C)C(C)C)C(=O)O [FLGVLFKVLSKLL]
MIC [2]: 2.03 µM (≈ 3 µg/mL) | MIC [3]: 1.35 µM (≈ 2 µg/mL) | MIC [4]: ≥ 271 µM | MIC [5]: 5.42 µM (≈ 8 µg/mL)

Structure (SMILES): CC(C)C[C@H](NC(=O)[C@H](Cc1c[nH]c2ccccc12)NC(=O)[C@H](CCCCN)NC(=O)[C@H](CCCCN)NC(=O)[C@H](Cc1c[nH]c2ccccc12)NC(=O)[C@H](CC(C)C)NC(=O)[C@H](CCCCN)NC(=O)[C@H](Cc1c[nH]c2ccccc12)NC(=O)[C@H](CC(C)C)NC(=O)[C@@H](N)CCCCN)C(=O)N[C@@H](CCCCN)C(N)=O [KLWKLWKKWLK]
MIC [20]: 4 µM (≈ 6.22 µg/mL) | MIC [21]: 4 µM (≈ 6.22 µg/mL) | MIC [22]: 2 µM (≈ 3.11 µg/mL) | MIC [23]: 2 µM (≈ 3.11 µg/mL) | MIC [24]: 2 µM (≈ 3.11 µg/mL) | MIC [25]: 1 µM (≈ 1.56 µg/mL) | MIC [26]: 8 µM (≈ 12.4 µg/mL) | MIC [27]: 2 µM (≈ 3.11 µg/mL) | MIC [28]: 4 µM (≈ 6.22 µg/mL) | MIC [29]: 4 µM (≈ 6.22 µg/mL) | MIC [30]: ≥ 100 µM

Structure (SMILES): CC(C)C[C@H](NC(=O)[C@H](CC(C)C)NC(=O)[C@H](CCCCN)NC(=O)[C@H](CO)NC(=O)[C@H](CC(C)C)NC(=O)[C@H](C)NC(=O)[C@H](CCCCN)NC(=O)[C@@H](NC(=O)[C@@H](NC(=O)[C@H](C)NC(=O)CNC(=O)[C@H](CC(C)C)NC(=O)[C@@H](N)Cc1ccccc1)C(C)C)C(C)C)C(=O)O [FLGAVVKALSKLL]
MIC [2]: 19.1 µM (≈ 26 µg/mL) | MIC [3]: 10.3 µM (≈ 14 µg/mL) | MIC [4]: ≥ 36.8 µM | MIC [5]: 29.4 µM (≈ 40 µg/mL)

Structure (SMILES): CC[C@H](C)[C@H](NC(=O)[C@H](Cc1ccccc1)NC(=O)[C@H](CCCCN)NC(=O)[C@H](CC(N)=O)NC(=O)[C@@H](NC(=O)[C@H](Cc1ccc(O)cc1)NC(=O)[C@@H](NC(=O)[C@H](Cc1ccc(O)cc1)NC(=O)[C@H](Cc1ccccc1)NC(=O)[C@H](CCCCN)NC(=O)[C@H](CCCCN)NC(=O)[C@H](C)NC(=O)[C@H](CC(C)C)NC(=O)[C@H](CC(N)=O)NC(=O)[C@H](C)NC(=O)CN)[C@@H](C)O)[C@@H](C)CC)C(=O)N[C@@H](CC(N)=O)C(=O)N[C@@H](Cc1ccc(O)cc1)C(=O)N[C@@H](C)C(=O)N[C@@H](Cc1c[nH]c2ccccc12)C(=O)O [GANLAKKFYTYINKFINYAW]
MIC [6]: ≥ 52.8 µM | MIC [7]: ≥ 52.8 µM | MIC [8]: ≥ 106 µM | MIC [9]: ≥ 52.8 µM | MIC (Streptococcus iniae): ≥ 106 µM | MIC [10]: ≥ 52.8 µM | MIC [11]: 26.4 µM (≈ 64 µg/mL) | MIC [12]: 13.2 µM (≈ 32 µg/mL) | MIC [13]: ≥ 52.8 µM | MIC (Vibrio harveyi): 3.3 µM (≈ 8 µg/mL) | MIC [14]: 26.4 µM (≈ 64 µg/mL) | MIC [15]: ≥ 52.8 µM | MIC [16]: ≥ 52.8 µM | MIC (Lactococcus garvieae): ≥ 106 µM | MIC [17]: 13.2 µM (≈ 32 µg/mL) | MIC (Vibrio parahaemolyticus): 6.6 µM (≈ 16 µg/mL) | MIC (Vibrio alginolyticus): 13.2 µM (≈ 32 µg/mL) | MIC [18]: ≥ 52.8 µM | MIC [19]: 26.4 µM (≈ 64 µg/mL)

Now from value to compound, other results behind:

MIC (Escherichia coli): 1 µM (≈ 3.01 µg/mL) | MIC (Bacillus subtilis): ≥ 32 µM | MIC (Streptococcus pyogenes): ≥ 64 µM | MIC (Salmonella typhimurium): 0.5 µM (≈ 1.51 µg/mL) | MIC (Pseudomonas aeruginosa): 4 µM (≈ 12.1 µg/mL) | MIC (Proteus vulgaris): 2 µM (≈ 6.03 µg/mL) | MIC [1]: ≥ 64 µM
Structure (SMILES): CC(C)C[C@H](NC(=O)[C@H](CCCN=C(N)N)NC(=O)[C@@H]1CCCN1C(=O)[C@H](Cc1cnc[nH]1)NC(=O)[C@@H]1CCCN1C(=O)[C@@H]1CCCN1C(=O)[C@H](CCCN=C(N)N)NC(=O)[C@@H]1CCCN1C(=O)[C@@H]1CCCN1C(=O)[C@H](Cc1cnc[nH]1)NC(=O)[C@@H]1CCCN1C(=O)[C@@H]1CCCN1C(=O)[C@H](CCCN=C(N)N)NC(=O)[C@@H]1CCCN1C(=O)[C@@H]1CCCN1C(=O)[C@H](Cc1cnc[nH]1)NC(=O)[C@@H]1CCCN1C(=O)[C@@H]1CCCN1C(=O)[C@H](CCCN=C(N)N)NC(=O)[C@@H]1CCCN1C(=O)[C@@H]1CCCN1C(=O)[C@H](Cc1cnc[nH]1)NC(=O)[C@@H]1CCCN1C(=O)[C@@H]1CCCN1C(=O)[C@H](CCCN=C(N)N)NC(=O)[C@@H]1CCCN1)C(=O)O [PRPPHPPRPPHPPRPPHPPRPPHPRL]

MIC [6]: 13.7 µM (≈ 32 µg/mL) | MIC [7]: 3.42 µM (≈ 8 µg/mL) | MIC [8]: 13.7 µM (≈ 32 µg/mL) | MIC [9]: 6.83 µM (≈ 16 µg/mL) | MIC (Streptococcus iniae): 27.3 µM (≈ 64 µg/mL) | MIC [10]: 6.83 µM (≈ 16 µg/mL) | MIC [11]: 27.3 µM (≈ 64 µg/mL) | MIC [12]: 27.3 µM (≈ 64 µg/mL) | MIC [13]: 13.7 µM (≈ 32 µg/mL) | MIC (Vibrio harveyi): 1.71 µM (≈ 4 µg/mL) | MIC [14]: 6.83 µM (≈ 16 µg/mL) | MIC [15]: ≥ 54.7 µM | MIC [16]: ≥ 54.7 µM | MIC (Lactococcus garvieae): ≥ 54.7 µM | MIC [17]: 6.83 µM (≈ 16 µg/mL) | MIC (Vibrio alginolyticus): 6.83 µM (≈ 16 µg/mL) | MIC [19]: 6.83 µM (≈ 16 µg/mL)
Structure (SMILES): CC[C@H](C)[C@H](NC(=O)[C@H](CCCCN)NC(=O)[C@H](CCCCN)NC(=O)[C@H](CC(C)C)NC(=O)[C@H](Cc1ccc(O)cc1)NC(=O)[C@H](CC(N)=O)NC(=O)[C@H](Cc1ccc(O)cc1)NC(=O)[C@@H](NC(=O)[C@@H](NC(=O)[C@H](CCCCN)NC(=O)[C@H](C)NC(=O)[C@H](Cc1ccc(O)cc1)NC(=O)[C@H](CCCCN)NC(=O)[C@H](C)NC(=O)CN)[C@@H](C)CC)[C@@H](C)CC)C(=O)N[C@@H](C)C(=O)N[C@@H](CC(N)=O)C(=O)N[C@@H](C)C(=O)N[C@@H](CC(C)C)C(=O)N[C@@H](Cc1c[nH]c2ccccc12)C(=O)O [GAKYAKIIYNYLKKIANALW]
MIC (Vibrio parahaemolyticus): 6.83 µM (≈ 16 µg/mL) | MIC [18]: 6.83 µM (≈ 16 µg/mL)

MIC [20]: 2 µM (≈ 3.56 µg/mL) | MIC [21]: 16 µM (≈ 28.5 µg/mL) | MIC [22]: 4 µM (≈ 7.13 µg/mL) | MIC [23]: 2 µM (≈ 3.56 µg/mL) | MIC [24]: 8 µM (≈ 14.3 µg/mL) | MIC [25]: 4 µM (≈ 7.13 µg/mL) | MIC [26]: 16 µM (≈ 28.5 µg/mL) | MIC [27]: 8 µM (≈ 14.3 µg/mL) | MIC [28]: 4 µM (≈ 7.13 µg/mL) | MIC [29]: 8 µM (≈ 14.3 µg/mL)
Structure (SMILES): CC(C)C[C@H](NC(=O)[C@@H](N)CCCN=C(N)N)C(=O)N[C@@H](Cc1c[nH]c2ccccc12)C(=O)N[C@@H](CCCN=C(N)N)C(=O)N[C@@H](CCCN=C(N)N)C(=O)N[C@@H](Cc1c[nH]c2ccccc12)C(=O)N[C@@H](CCCN=C(N)N)C(=O)N[C@@H](CCCN=C(N)N)C(=O)N[C@@H](Cc1c[nH]c2ccccc12)C(=O)N[C@@H](CCCN=C(N)N)C(=O)N[C@@H](CCCN=C(N)N)C(N)=O [RLWRRWRRWRR]
